# In patent US20100311714A1, “1H-IMIDAZO[4,5-c]QUINOLINONE COMPOUNDS” (priority 2009, published 2010):
# Assays:
# [1] = target: T1, PI3K gamma (Homo sapiens, UniProt P48736); assay: PI3K gamma kinase assay (Kinase-Glo luminescence); assay type: biochemical; details: read-out: PI3Kgamma/IC50
# T1 construct: His tag (C); made in house; host or cells: construct from Roger Williams lab (pVL1393); baculovirus BV950; Tn5 (Trichoplusia ni) or TiniPro insect cells
# Protocol: In a more preferred assay, the kinase reaction is performed in a final volume of 10 μL per well of a low volume non binding CORNING, 384 well black plate (Cat. No. #3676). The final concentrations of ATP and phosphatidyl inositol (PI) in the assay are 1 μM and 10 μg/mL respectively. The reaction is started by the addition of ATP.
# The components of the assay are added per well as follows:
# 50 nL test compounds in 90% DMSO per well, in columns 1-20, 8 concentrations (⅓ and 1/3.33 serial dilution step) in single. • Low control: […] of 90% DMSO in half the wells of columns 23-24 (0.45% in final). • High control: 50 nL of reference compound (e.g. compound of Example 7 in WO 2006/122806) in the other half of columns 23-24 (2.5 μM in final). • Standard: 50 nL of reference compound as just mentioned diluted as the test compounds in columns 21-22 • 20 mL ‘buffer’ are prepared per assay: • 200 μL of 1M TRIS HCl pH7.5 (10 mM in final) • 60 μL of 1M MgCl2 (3 mM in final) • 500 μL of 2M NaCl (50 mM in final) • 100 μL of 10% CHAPS (0.05% in final) • 200 μL of 100 mM DTT (1 mM in final) • 18.94 mL of nanopure water • 10 mL ‘PI’ are prepared per assay: • 200 μL of 1 mg/ml L-alpha-Phosphatidylinositol (Liver Bovine, Avanti Polar Lipids Cat. No. 840042C MW=909.12) prepared in 3% OctylGlucoside (10 μg/ml in final) • 9.8 mL of ‘buffer’ • 10 mL ‘ATP’ are prepared per assay: • 6.7 μL of 3 mM stock of ATP giving a final concentration of 1 μM per well • 10 mL of ‘buffer’ • 2.5 mL of each PI3K construct are prepared per assay in ‘PI’ with the following final concentration: • 10 nM PI3K alfa EMV B1075 • 25 nM beta EMV BV949 • 10 nM delta EMV BV1060 • 150 nM gamma EMV BV950 • 5 μL of ‘PI/PI3K’ are added per well. • 5 μl ‘ATP’ are added per well to start the reaction. • The plates are then incubated at room temperature for 60 minutes (alfa, beta, delta) or 120 minutes (gamma). • The reaction is terminated by the addition of 10 μL Kinase-Glo (Promega Cat. No. #6714). • The assay plates are read after 10 minutes in Synergy 2 reader (BioTek, Vermont USA) with an integration time of 100 milliseconds and sensitivity set to 191. • Output: The High control is around 60′000 counts and the Low control is 30′000 or lower • This luminescence assay gives a useful Z′ ratio between 0.4 and 0.7
# PI3K gamma is purified in two chromatographic steps: immobilized metal affinity chromatography (IMAC) on a Ni Sepharose resin (GE Healthcare) and gel filtration (GFC) utilizing a Superdex 200 26/60 column (GE Healthcare). All buffers are chilled to 4° C. and lysis is performed chilled on ice. Column fractionation is performed rapidly at room temperature. Typically frozen insect cells are lysed in a hypertonic lysis buffer and applied to a prepared IMAC column. The resin is washed with 3-5 column volumes of lysis buffer, followed by 3-5 column volumes wash buffer containing 45 mM imidazole, and the target protein is then eluted with a buffer containing 250 mM imidazole. Fractions are analyzed by Coomassie stained SDS-PAGE gels, and fractions containing target protein are pooled and applied to a prepared GFC column. Fractions from the GFC column are analyzed by Coomassie stained SDS-PAGE gels, and fractions containing target protein are pooled. The final pool is dialyzed into a storage buffer containing 50% glycerol and stored at −20° C. The final pool is assayed for activity in the phosphoinostitol kinase assay.
# IC50 is determined by a four parameter curve fitting routine that comes along with “excel fit”. A 4 Parameter logistic equation is used to calculate IC50 values (IDBS XLfit) of the percentage inhibition of each compound at 8 concentrations (usually 10, 3.0, 1.0, 0.3, 0.1, 0.030, 0.010 and 0.003 μM). Alternatively, IC50 values are calculated using idbsXLfit model 204, which is a 4 parameter logistic model.
# [2] = High-throughput equilibrium solubility at pH 6.8; assay type: physicochemical; details: pH 6.8, aqueous buffer, thermodynamic from solid; read-out: HT-Eq Sol/pH 6.8
# Summary of the method: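 Following the procedure of Zhou et al. (2007), compound solubility was determined at pH 6.8.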
# T1 sequence (P48736 144-1102 limits assumed): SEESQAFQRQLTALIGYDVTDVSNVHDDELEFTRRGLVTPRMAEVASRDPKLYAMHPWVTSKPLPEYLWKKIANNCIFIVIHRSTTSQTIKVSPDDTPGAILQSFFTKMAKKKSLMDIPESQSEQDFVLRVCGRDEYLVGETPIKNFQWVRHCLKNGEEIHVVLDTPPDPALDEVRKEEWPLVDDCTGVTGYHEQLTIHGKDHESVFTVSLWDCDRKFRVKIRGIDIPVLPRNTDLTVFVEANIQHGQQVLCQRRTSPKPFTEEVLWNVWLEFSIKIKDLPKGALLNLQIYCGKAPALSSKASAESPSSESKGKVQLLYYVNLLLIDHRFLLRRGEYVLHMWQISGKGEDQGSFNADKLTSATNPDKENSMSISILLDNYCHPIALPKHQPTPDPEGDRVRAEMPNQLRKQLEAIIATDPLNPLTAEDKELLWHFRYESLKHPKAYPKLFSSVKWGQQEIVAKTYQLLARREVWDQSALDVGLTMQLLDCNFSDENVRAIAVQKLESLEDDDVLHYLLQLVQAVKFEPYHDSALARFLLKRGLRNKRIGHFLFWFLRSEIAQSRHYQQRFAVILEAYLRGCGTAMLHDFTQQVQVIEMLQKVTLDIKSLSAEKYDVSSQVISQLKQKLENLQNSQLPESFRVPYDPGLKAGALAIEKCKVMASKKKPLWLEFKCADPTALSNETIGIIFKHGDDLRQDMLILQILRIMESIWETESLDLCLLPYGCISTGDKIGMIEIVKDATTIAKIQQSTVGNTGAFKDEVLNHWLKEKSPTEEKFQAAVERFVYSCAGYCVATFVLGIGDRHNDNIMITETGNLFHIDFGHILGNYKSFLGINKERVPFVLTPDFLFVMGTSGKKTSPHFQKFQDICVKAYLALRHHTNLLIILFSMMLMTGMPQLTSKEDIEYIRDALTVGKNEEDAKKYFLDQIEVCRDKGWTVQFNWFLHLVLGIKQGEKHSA
Structure (SMILES),IC50 [1] [µM],solubility thermodynamic [2] [µg/mL]
"CNc1ncc(-c2ccc3ncc4c(c3c2)n(-c2cccnc2C)c(=O)n4C)cn1 [Example 2.2, 3-Methyl-8-(2-methylamino-pyrimidin-5-yl)-1-(2-methyl-pyridin-3-yl)-1,3-dihydro-imidazo[4,5-c]quinolin-2-one]",0.331,14
"CCOc1ccc(-c2ccc3ncc4c(c3c2)n(-c2cccnc2C)c(=O)n4C)cn1 [Example 2.1, 8-(6-Ethoxy-pyridin-3-yl)-3-methyl-1-(2-methyl-pyridin-3-yl)-1,3-dihydro-imidazo[4,5-c]quinolin-2-one]",0.587,3
